Assay results from patent US11413261B2, “Pharmaceutical composition for treating cancer comprising lactate metal salt” (METIMEDI PHARMACEUTICALS CO., LTD, priority 2014, dated 2022).

How the values were obtained:
[1] = test system: GLUT 1 and HK2; test: GLUT 1 and HK2 expression under hypoxia (real-time PCR, Western blot); assay type: cell-based, human; settings: HCT-116 and HT-29; hypoxia condition
Experimental: Human colorectal cancer cell lines (HCT-116 and HT-29) were cultured under normoxia or hypoxia condition. The cell lines cultured under the hypoxia condition were treated with calcium lactate, and then, expression levels of GLUT 1 and HK2 in each of the cultured cell lines were compared at the mRNA and protein expression levels (FIG. 7).

[2] = test system: human colorectal cancer cell lines (HCT-116 and HT-29); test: Pyruvate level in cancer cells (pyruvate assay kit); assay type: cell-based; settings: 2.5 mM, 24 hours
Experimental: Each of human colorectal cancer cell lines (HCT-116 and HT-29) with the cell number of 5×10^5 cells was treated with 2.5 mM calcium lactate for 24 hours and the cells were disrupted by ultrasonication and filtered using a 10 kDa filter so as to obtain filtrate. The obtained filtrate was applied to a pyruvate assay kit (Abcam, Cambridge, Mass.) to measure the concentration of pyruvate included in the filtrate (FIG. 12).

[3] = test system: human kidney cancer cell line (Caki-1); test: Colony-forming ability, anticancer drug in combination with calcium lactate (6-well plates); assay type: cell-based; settings: 2.5 mM calcium lactate alone, vs control
Experimental: Human kidney cancer cell line (Caki-1) with the cell number of 1×10^3 cells were seeded into an RPMI1640 medium in each of 6-well plates. After one day, the medium was replaced with fresh medium and the cells were treated with 0.3 nM, 0.5 nM, and 1 nM Everolimus alone or treated with various concentrations (0.3 nM, 0.5 nM, and 1 nM) of Everolimus in combination with 2.5 mM calcium lactate. Then, the colony-forming abilities of the cells were compared. In this case, a human kidney cancer cell line (Caki-1) untreated with any drug was used as a control group (FIGS. 53a and 53b).

[4] = test system: LDH-B (lactate dehydrogenase B); test: LDH-B protein expression (immunofluorescence); assay type: cell-based, human; settings: HCT-116 and HT-29; 2.5 mM, 24 hours
Experimental: Human colorectal cancer cell lines (HCT-116 and HT-29) were treated with 2.5 mM calcium lactate and cultured for 24 hours. The cultured cancer cell lines were immobilized with 4% paraformaldehyde and treated with an anti-rabbit LDHB antibody for 15 hours. Then, the cancer cell lines were washed with PBS and treated with a secondary antibody conjugated with biotin and then reacted at room temperature for 2 hours. Then, the cancer cell lines were treated with streptavidine conjugated with FITC to perform fluorescence staining and then photographed with a fluorescence microscope (FIG. 11a-11c). In this case, cancer cell lines cultured under normoxia condition (N-control) or hypoxia condition (H-control) were used as control groups, and a nucleus of each cell was stained using DAPI. Further, the photos were analyzed using the Xenogen In Vivo Imaging System 100 series and Living imaging software (Xenogen).

[5] = test system: cancer cell lines; test: α-KG level in cancer cells (α-Ketoglutarate assay kit); assay type: cell-based; settings: normal medium or glutamine-free medium; 2.5 mM, 24 hours
Experimental: Cancer cell lines with the cell number of 5×10^5 cells cultured in a normal medium or a glutamine-free medium were treated with 2.5 mM calcium lactate for 24 hours and the cells were disrupted by ultrasonication and filtered using a 10 kDa filter so as to obtain filtrate. The obtained filtrate was applied to an α-Ketoglutarate assay kit (BioVision, Exton, Pa.) to measure the concentration of α-KG included in the filtrate (FIGS. 14a and 14b).

[6] = test system: human breast cancer cell line (MCF-7); test: Colony-forming ability, anticancer drug in combination with calcium lactate (6-well plates); assay type: cell-based; settings: 2.5 mM calcium lactate alone, vs control
Experimental: Human breast cancer cell line (MCF-7) and a human lung cancer cell line (A549) with the cell number of 1×10^3 cells were seeded into an RPMI1640 medium in each of 6-well plates. […] Then, the colony-forming abilities of the cells were compared. In this case, a human breast cancer cell line (MCF-7) and a human lung cancer cell line (A549) untreated with any drug were used as control groups (FIGS. 42a, 42b, 43a and 43b).
Human breast cancer cell line (MCF-7) with the cell number of 1×10^3 cells were seeded into an RPMI1640 medium in each of 6-well plates. After one day, the medium was replaced with fresh medium and the cells were treated with 2.5 mM calcium lactate or 2 μM, 4 μM, and 8 μM Lapatinib alone or treated with various concentrations (2 μM, 4 μM, and 8 μM) of Lapatinib in combination with 2.5 mM calcium lactate. Then, the colony-forming abilities of the cells were compared. In this case, a human breast cancer cell line (MCF-7) untreated with any drug was used as a control group (FIGS. 52a and 52b).

[7] = test system: PARP; test: PARP protein expression in HCT-116 treated with calcium lactate, IS, CA alone or in combination; assay type: cell-based, human; settings: 5 mM calcium lactate alone, 24 hours
Experimental: The protein expression levels of PARP expressed in the colorectal cancer cell line were compared (FIG. 9) after a human colorectal cancer cell line (HCT-116) was treated individually or in combination for 24 hours with 5 mM calcium lactate, 5-indane sulfornamide (IS) as an inhibitor of carbonic anhydrase, or cinnamic acid (CA) as an inhibitor of MCT-4 which is a pathway of lactate. In this case, an untreated cancer cell line was used as a control group.

[8] = test system: β-catenin; test: β-catenin mRNA (RT-PCR) and protein (Western blot) expression in colorectal cancer cell lines; assay type: cell-based, human; settings: HCT-116, HT-29, DLD-1
Experimental: Human colorectal cancer cell lines (HCT-116, HT-29, and DLD-1) were cultured by the same method as that of Example 2-1 except that they were treated with 0 mM, 1.5 mM, or 2.5 mM calcium lactate, and the cultured cancer cells were obtained. Then, expression levels of […] depending on the concentration of calcium lactate were compared at the expression levels of mRNA and protein included therein.
Firstly, in order to compare mRNA expression levels, the total RNA was extracted from each of the cancer cells using an RNeasy mini kit and cDNA was synthesized using a reverse transcriptase. The gene of β-catenin was obtained through reverse transcriptase PCR using the synthesized cDNA as a template and the primers described below.
Then, in order to compare protein expression levels, each of the cancer cells was disrupted and electrophoresis was performed thereto. Then, a Western blot using anti-β-catenin antibody as a primary antibody and an anti-rabbit IgG conjugate as a secondary antibody was conducted (lower part of FIG. 5) and the blots were analyzed with the Image-J program. In this case, actin was used as internal control groups.

[9] = test system: cancer cell; test: Comparison of lactate delivery efficiency to a cancer cell; assay type: cell-based; settings: compared with sodium lactate and potassium lactate
[10] = test system: human colorectal cancer cell lines (HCT-116 and HT-29); test: pH inside and outside cancer cell; assay type: cell-based; settings: 2.5 mM
Experimental: Specifically, with the cells cultured in Example 2-1, an extracellular pH was measured with a pH meter from the medium for the cells treated with calcium lactate and then cultured and an intracellular pH was measured with a pH detection kit (Life Technologies, CA) from the cells treated with calcium lactate and then cultured (FIG. 4). In this case, cancer cells untreated with calcium lactate were used as control groups.

## CC(O)C(=O)[O-].CC(O)C(=O)[O-].[Ca+2] (stereo not drawn) [calcium lactate]
[1]
  expression levels of GLUT 1 and HK2 (activation of glycolysis): reduced
[2]
  pyruvate levels in the cells: sharply increased
[3]
  colony-forming ability: suppressed
[4]
  protein expression levels of LDH-B: sharply increased
[5]
  α-KG levels in the cells: sharply increased
[6]
  colony-forming ability: suppressed
[7]
  protein expression levels of PARP: decreased
[8]; 0, 1.5, 2.5 mM
  mRNA expression levels of β-catenin: no difference
[8]; with increasing concentration (0, 1.5, 2.5 mM)
  protein expression levels of β-catenin: decreased
[9]
  lactate delivery efficiency to a cancer cell: highest lactate delivery efficiency
[10]; pH detection kit
  intracellular pH: decreased to acidic condition
[10]; pH meter, medium
  extracellular pH: not changed
